Data on four compounds can be found in patent US4654370A, “Glyceryl valproates” (Abbott Laboratories, priority 1980, dated 1987).

Each structure is given as a SMILES string.

One data set relates to audiogenic seizures. The experiment in a line: Protective effects against audiogenic seizures in mice. It counts as in vivo. Particulars: oral; 800 mg./kg. valproic acid equivalent; 30 min after dosing; bell for one minute; groups of 10 mice. The method, then: The valproic acid equivalent of 800 mg./kg. of each compound was administered by oral intubation in a composition prepared as shown in Example 12 to groups of 10 mice. Thirty minutes after dosing, convulsions were produced by electrically activating a bell for one minute.

Another data set has as its system epileptic seizures. As to conditions: stated as background; cited from earlier work.
The test system of the next data set is gastro-intestinal tract. Particulars: cited from earlier work.
Data set [1] in a line: Valproic acid blood plasma levels after oral intubation in mice. The format is in vivo. Particulars: mouse, equivalent of 200 mg. valproic acid per animal, mean of 3-18 animals. As for the experimental part:
(§1) The compounds of the present invention were administered to mice and rats by oral intubation. A vehicle of 0.5% aqueous methylcellulose containing one drop of a polyethylene sorbitan monooleate was used to suspend the above compounds. In the case of Example 1, the compound was first ground in a tissue-homogenizer followed by mixing in a Waring blender. The results are shown in Table I expressed in mcg. of valproic acid per ml. of blood plasma at specified times.

Data set [2] in a line: Absorption profiles and area-under-the-curve in beagle dog. Particulars: blood, single oral dose 24.9 mg./kg. valproic acid equivalent. The format is in vivo. The method, then:
Since it is possible that the new compounds are not absorbed as quickly as valproic acid itself, absorption profiles and area-under-the-curve (AUC) values were calculated for valproic acid, glyceride trivalproate and representatives of the current compounds. The phrase AUC values represents the total quantity of the compound which is absorbed by the blood during the time periods referred to in Table III expressed in mcg./ml. A beagle dog received a single oral dose of 24.9 mg./kg. valproic acid equivalent in a composition prepared as shown in Example 12. The blood concentrations are shown in Table III as mcg./ml. while the AUC values are expressed as hr.×mcg./ml.

Data set [3] can be described thus: Valproic acid blood plasma levels after oral intubation in rats. The format is in vivo. Particulars: rat, equivalent of 200 mg. valproic acid per animal, mean of 3-18 animals. The method, then: as §1

With `CCCC(CCC)C(=O)OCC(O)CO` (racemic) [Example 6, 1-Valproyl-glycerol], in the data set on audiogenic seizures, the “Percentage of Mice Exhibiting Seizures, Any Type” value (“Percentage … Any Type” for short) stood at 50% and the “Percentage of Mice Exhibiting Seizures, Tonic Extension” value (“Percentage … Tonic Extension” below) was determined as 10%.
With `CCCC(CCC)C(=O)OC(COC(C)=O)COC(C)=O` [Example 5, 1,3-Diacetyl-2-valproyl-glyceride], in the data set with audiogenic seizures, the “Percentage … Any Type” value is listed as 50% and the “Percentage … Tonic Extension” value is on record as 10%.
On to `CCCC(CCC)C(=O)OCC(COC(=O)C(CCC)CCC)OC(=O)C(CCC)CCC` [Glycerol trivalproate], for which the therapeutic value result in the data set with epileptic seizures was “substantially no therapeutic value”. In addition, the adverse side effects result with gastro-intestinal tract (reported by Meijer and Meinardi, 1975) is given as “no adverse side effects”. In the data set with audiogenic seizures, the “Percentage … Any Type” value is recorded as 100% and the “Percentage … Tonic Extension” value turned out to be 80%.
In the case of `CCCC(CCC)C(=O)O` [Valproic Acid, 2-propylpentanoic acid], the concentration at 0.5 h in data set [1] (0.5 hrs.) came out at 134000 ng/mL; in data set [2] (0.5 hrs.), 65600 ng/mL; in data set [3] (0.5 hrs.), 84100 ng/mL. The concentration at 1.5 h came to 72000 ng/mL in data set [1] (1.5 hrs.) and 27500 ng/mL in data set [3] (1.5 hrs.). The concentration at 1 h in data set [2] (1 hr.) amounted to 40800 ng/mL. The concentration at 2 h in data set [2] (2 hrs.) was 9000 ng/mL. The concentration at 4 h in data set [2] (4 hrs.) was found to be 2600 ng/mL. Further, the concentration at 6 h in data set [2] (6 hrs.) was 1300 ng/mL. Besides, in data set [2] (8 hrs.), the AUC (usually concentration integrated over time) at 8 h stood at 82200 ng·h/mL. The “gastro-intestinal irritation in patients” value in the data set on gastro-intestinal tract (patients using valproic acid) is 9-16%. The “Percentage … Any Type” value in the data set on audiogenic seizures was 50%. Moreover, the “Percentage … Tonic Extension” value in the data set with audiogenic seizures turned out to be 10%.
